Like-named read-outs stand apart in the source and are kept apart here.
How the values were obtained:
[1] = system: HCV genotype 1a (H77 strain) replicon in HUH-7 cells; assay: HCV replicon luciferase reporter assay, genotype 1a; format: cell-based; details: Hepatitis C virus, Huh-7, 72 h, 3 days incubation, read-out: LE_1a (EC50, range)
Method in brief: (§1)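 Replicon inhibition for both genotypes was measured as Renilla luciferase signal (EnduRen, 7.5 μM final, 2 h) after 3-day, 37° C exposure of replicon-bearing HUH-7 cells in 4% FCS DMEM, 0.5% DMSO. The 1b construct carries S1179I; the 1a H77 construct carries P1496L and S2204I. Twenty-point, 3-fold dilutions were fitted four-parametrically for EC50, and CC50 was taken from multiplexed Cell Titer-Blue.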

[2] = system: HCV genotype 1b (Con1) replicon in HUH-7 cells; assay: HCV replicon luciferase reporter assay, genotype 1b; format: cell-based; details: Hepatitis C virus, Huh-7, 72 h, 3 days incubation, read-out: LE_1b (EC50, range)
Method in brief: as §1

[3] = HCV genotype 1a replicon luciferase assay, range class
[4] = HCV genotype 1b replicon luciferase assay, range class
[5] = HCV genotype 1a replicon luciferase
[6] = HCV genotype 1b replicon luciferase
[7] = GETYPE1A, HCV genotype 1a replicon luciferase
[8] = GETYPE1B, HCV genotype 1b replicon luciferase

Compound | EC50 [1, 5] [nM] | EC50 [2, 6] [nM] | other results
COc1ccc2c(O[C@@H]3C[C@H]4C(=O)N[C@]5(C(=O)NS(=O)(=O)C6CC6)C[C@H]5/C=C\CC[C@@H](C)C[C@@H](C)[C@H](NC(=O)OC(C)(C)C)C(=O)N4C3)nc(-c3ccc(OC)c(F)c3)cc2c1 [Compound 3050, tert-butyl ((2R,6S,7R,9R,13aS,14aR,16aS,Z)-14a-((cyclopropylsulfonyl)carbamoyl)-2-((3-(3-fluoro-4-methoxyphenyl)-6-methoxyisoquinolin-1-yl)oxy)-7,9-dimethyl-5,16-dioxo-1,2,3,5,6,7,8,9,10,11,13a,14,14a,15,16,16a-hexadecahydrocyclopropa[e]pyrrolo[1,2-a][1,4]diazacyclopentadecin-6-yl)carbamate] |  |  | EC50 [1, 3]: < 5.46 nM; EC50 [2, 4]: < 5.46 nM
CC[C@@H]1C[C@H](C)CC/C=C\[C@@H]2C[C@@]2(C(=O)NS(=O)(=O)C2CC2)NC(=O)[C@@H]2C[C@@H](Oc3nc(OC)cc4ccccc34)CN2C(=O)[C@H]1NC(=O)OC(C)(C)C [Compound 6001, tert-butyl ((2R,6S,7R,9R,13aS,14aR,16aS,Z)-14a-((cyclopropylsulfonyl)carbamoyl)-7-ethyl-2-((3-methoxyisoquinolin-1-yl)oxy)-9-methyl-5,16-dioxo-1,2,3,5,6,7,8,9,10,11,13a,14,14a,15,16,16a-hexadecahydrocyclopropa[e]pyrrolo[1,2-a][1,4]diazacyclopentadecin-6-yl)carbamate] | < 5.46 | < 5.46 | 
COc1cc2c(OC)cnc(O[C@@H]3C[C@H]4C(=O)N[C@]5(C(=O)NS(=O)(=O)C6(CF)CC6)C[C@H]5/C=C\CC[C@@H](C)C[C@@H](C)[C@H](NC(=O)c5c(F)cc(F)cc5F)C(=O)N4C3)c2cc1F [Compound 4117, (2R,6S,7R,9R,13aS,14aR,16aS,Z)-2-(7-fluoro-4,6-dimethoxyisoquinolin-1-yloxy)-N-(1-(fluoromethyl)cyclopropylsulfonyl)-7,9-dimethyl-5,16-dioxo-6-(2,4,6-trifluorobenzamido)-1,2,3,5,6,7,8,9,10,11,13a,14,14a,15,16,16a-hexadecahydrocyclopropa[e]pyrrolo[1,2-a][1,4]diazacyclopentadecine-14a-carboxamide] | < 5.46 | < 5.46 | 
CC[C@@H]1C[C@H](C)CC/C=C\[C@@H]2C[C@@]2(C(=O)NS(=O)(=O)C2(CO)CC2)NC(=O)[C@@H]2C[C@@H](Oc3nccc4cc(OC)c(F)cc34)CN2C(=O)[C@H]1NC(=O)OC(C)(C)C(F)(F)F [Compound 4325] |  |  | EC50 [1, 7]: 35 to 620 nM; EC50 [2, 8]: 5.01 to 35 nM
CC[C@@H]1C[C@H](C)CC/C=C\[C@@H]2C[C@@]2(C(=O)NS(=O)(=O)C2(CF)CC2)NC(=O)[C@@H]2C[C@@H](Oc3nc4c(c5ccccc35)CCCO4)CN2C(=O)[C@H]1NC(=O)OC(C)(C)C(F)(F)F [Compound 6068, 1,1,1-trifluoro-2-methylpropan-2-yl((2R,6S,7R,9R,13aS,14aR,16aS,Z)-2-((2,3-dihydro-1H-pyrano[2,3-c]isoquinolin-6-yl)oxy)-7-ethyl-14a-(((1-(fluoromethyl)cyclopropyl)sulfonyl)carbamoyl)-9-methyl-5,16-dioxo-1,2,3,5,6,7,8,9,10,11,13a,14,14a,15,16,16a-hexadecahydrocyclopropa[e]pyrrolo[1,2-a][1,4]diazacyclopentadecin-6-yl)carbamate] | 1.01 to 5 | 0.51 to 1 | 
COc1ccc2c(O[C@@H]3C[C@H]4C(=O)N[C@]5(C(=O)NS(=O)(=O)C6(C)CC6)C[C@H]5/C=C\CC[C@@H](C)C[C@@H](C)[C@H](NC(=O)OCC5(C)CC5)C(=O)N4C3)nc(-c3ccc(OC(C)C)c(F)c3)cc2c1 [Compound 3068, (1-methylcyclopropyl)methyl ((2R,6S,7R,9R,13aS,14aR,16aS,Z)-2-((3-(3-fluoro-4-isopropoxyphenyl)-6-methoxyisoquinolin-1-yl)oxy)-7,9-dimethyl-14a-(((1-methylcyclopropyl)sulfonyl)carbamoyl)-5,16-dioxo-1,2,3,5,6,7,8,9,10,11,13a,14,14a,15,16,16a-hexadecahydrocyclopropa[e]pyrrolo[1,2-a][1,4]diazacyclopentadecin-6-yl)carbamate] |  |  | EC50 [1, 3]: < 5.46 nM; EC50 [2, 4]: < 5.46 nM
[2H]C([2H])([2H])C(OC(=O)N[C@@H]1C(=O)N2C[C@H](Oc3nc(-c4ccc(OC(C)C)nc4)cc4cc(OC)ccc34)C[C@H]2C(=O)N[C@]2(C(=O)NS(=O)(=O)C3(C)CC3)C[C@H]2/C=C\CC[C@H](C)C[C@H]1C)(C([2H])([2H])[2H])C(F)(F)F [Compound 5226, 1,1,1,3,3,3-hexadeutero-2-(trifluoromethyl)propan-2-yl((2R,6S,7R,9S,13aS,14aR,16aS,Z)-2-((3-(6-isopropoxypyridin-3-yl)-6-methoxyisoquinolin-1-yl)oxy)-7,9-dimethyl-14a-(((1-methylcyclopropyl)sulfonyl)carbamoyl)-5,16-dioxo-1,2,3,5,6,7,8,9,10,11,13a,14,14a,15,16,16a-hexadecahydrocyclopropa[e]pyrrolo[1,2-a][1,4]diazacyclopentadecin-6-yl)carbamate] | 4.82 to 103 | 4.82 to 103 | 
[2H]C([2H])([2H])C(OC(=O)N[C@@H]1C(=O)N2C[C@H](Oc3nccc4c5c(ccc34)N(C)CCO5)C[C@H]2C(=O)N[C@]2(C(=O)NS(=O)(=O)C3CC3)C[C@H]2/C=C\CC[C@@H](C)C[C@H]1C)(C([2H])([2H])[2H])C([2H])([2H])[2H] [Compound 5288, 1,1,1,3,3,3-hexadeutero-2-(trideuteromethyl)propan-2-yl((2R,6S,7R,9R,13aS,14aR,16aS,Z)-14a-((cyclopropylsulfonyl)carbamoyl)-7,9-dimethyl-2-((4-methyl-3,4-dihydro-2H-[1,4]oxazino[2,3-f]isoquinolin-7-yl)oxy)-5,16-dioxo-1,2,3,5,6,7,8,9,10,11,13a,14,14a,15,16,16a-hexadecahydrocyclopropa[e]pyrrolo[1,2-a][1,4]diazacyclopentadecin-6-yl)carbamate] | < 5.46 | < 5.46 | 
C[C@@H]1CC/C=C\[C@@H]2C[C@@]2(C(=O)NS(=O)(=O)C2CC2)NC(=O)[C@@H]2C[C@@H](Oc3nccc4c5c(ccc34)N(C)CCO5)CN2C(=O)[C@@H](NC(=O)NC(C)(C)C)[C@H](C)C1 [Compound 5284, (2R,6S,7R,9R,13aS,14aR,16aS,Z)-6-(3-(tert-butyl)ureido)-N-(cyclopropylsulfonyl)-7,9-dimethyl-2-((4-methyl-3,4-dihydro-2H-[1,4]oxazino[2,3-f]isoquinolin-7-yl)oxy)-5,16-dioxo-1,2,3,5,6,7,8,9,10,11,13a,14,14a,15,16,16a-hexadecahydrocyclopropa[e]pyrrolo[1,2-a][1,4]diazacyclopentadecine-14a-carboxamide] | < 5.46 | < 5.46 | 
CCOc1cnc(O[C@@H]2C[C@H]3C(=O)N[C@]4(C(=O)NS(=O)(=O)C5(CF)CC5)C[C@H]4/C=C\CC[C@@H](C)C[C@@H](C)[C@H](NC(=O)OC(C)(C)C(F)(F)F)C(=O)N3C2)c2ccc(OC)cc12 [Compound 4104] |  |  | EC50 [1, 7]: < 5.46 nM; EC50 [2, 8]: < 5.46 nM
COc1ccc2c(O[C@@H]3C[C@H]4C(=O)N[C@]5(C(=O)NS(=O)(=O)C6(C)CC6)C[C@H]5/C=C\CC[C@@H](C)C[C@@H](C)[C@H](NC(=O)OC(C)(C)C)C(=O)N4C3)cnnc2c1 [Compound 4319, tert-butyl ((2R,6S,7R,9R,13aS,14aR,16aS,Z)-2-((7-methoxycinnolin-4-yl)oxy)-7,9-dimethyl-14a-(((1-methylcyclopropyl)sulfonyl)carbamoyl)-5,16-dioxo-1,2,3,5,6,7,8,9,10,11,13a,14,14a,15,16,16a-hexadecahydrocyclopropa[e]pyrrolo[1,2-a][1,4]diazacyclopentadecin-6-yl)carbamate] | 5.01 to 35 | 35 to 620 | 
CC[C@@H]1C[C@H](C)CC/C=C\[C@@H]2C[C@@]2(C(=O)NS(=O)(=O)C2(C)CC2)NC(=O)[C@@H]2C[C@@H](Oc3nccc4cc(OC)c(F)cc34)CN2C(=O)[C@H]1NC(=O)C1(C(F)(F)F)CC1 [Compound 4331, (2R,6S,7R,9R,13aS,14aR,16aS,Z)-7-ethyl-2-((7-fluoro-6-methoxyisoquinolin-1-yl)oxy)-9-methyl-N-((1-methylcyclopropyl)sulfonyl)-5,16-dioxo-6-(1-(trifluoromethyl)cyclopropanecarboxamido)-1,2,3,5,6,7,8,9,10,11,13a,14,14a,15,16,16a-hexadecahydrocyclopropa[e]pyrrolo[1,2-a][1,4]diazacyclopentadecine-14a-carboxamide] | 1.01 to 5 | 0.51 to 1 | 
CCOc1cc2ccnc(O[C@@H]3C[C@H]4C(=O)N[C@]5(C(=O)NS(=O)(=O)C6(C)CC6)C[C@H]5/C=C\CC[C@@H](C)C[C@@H](CC)[C@H](NC(=O)OC(C)(C)C(F)F)C(=O)N4C3)c2cc1F [Compound 5525, 1,1-difluoro-2-methylpropan-2-yl((2R,6S,7R,9R,13aS,14aR,16aS,Z)-2-((6-ethoxy-7-fluoroisoquinolin-1-yl)oxy)-7-ethyl-9-methyl-14a-(((1-methylcyclopropyl)sulfonyl)carbamoyl)-5,16-dioxo-1,2,3,5,6,7,8,9,10,11,13a,14,14a,15,16,16a-hexadecahydrocyclopropa[e]pyrrolo[1,2-a][1,4]diazacyclopentadecin-6-yl)carbamate] | 1.01 to 5 | 0.51 to 1 | 

Source: patent US9499550B2 (BRISTOL-MYERS SQUIBB COMPANY, priority 2012, dated 2016)
